Like-named read-outs stand apart in the source and are kept apart here.

The assay concerns the target T1, AR protein in VCaP cells (Homo sapiens, UniProt P10275).
T1 construct: endogenous in cells; host or cells: VCaP cells
T1 sequence (P10275 1-920): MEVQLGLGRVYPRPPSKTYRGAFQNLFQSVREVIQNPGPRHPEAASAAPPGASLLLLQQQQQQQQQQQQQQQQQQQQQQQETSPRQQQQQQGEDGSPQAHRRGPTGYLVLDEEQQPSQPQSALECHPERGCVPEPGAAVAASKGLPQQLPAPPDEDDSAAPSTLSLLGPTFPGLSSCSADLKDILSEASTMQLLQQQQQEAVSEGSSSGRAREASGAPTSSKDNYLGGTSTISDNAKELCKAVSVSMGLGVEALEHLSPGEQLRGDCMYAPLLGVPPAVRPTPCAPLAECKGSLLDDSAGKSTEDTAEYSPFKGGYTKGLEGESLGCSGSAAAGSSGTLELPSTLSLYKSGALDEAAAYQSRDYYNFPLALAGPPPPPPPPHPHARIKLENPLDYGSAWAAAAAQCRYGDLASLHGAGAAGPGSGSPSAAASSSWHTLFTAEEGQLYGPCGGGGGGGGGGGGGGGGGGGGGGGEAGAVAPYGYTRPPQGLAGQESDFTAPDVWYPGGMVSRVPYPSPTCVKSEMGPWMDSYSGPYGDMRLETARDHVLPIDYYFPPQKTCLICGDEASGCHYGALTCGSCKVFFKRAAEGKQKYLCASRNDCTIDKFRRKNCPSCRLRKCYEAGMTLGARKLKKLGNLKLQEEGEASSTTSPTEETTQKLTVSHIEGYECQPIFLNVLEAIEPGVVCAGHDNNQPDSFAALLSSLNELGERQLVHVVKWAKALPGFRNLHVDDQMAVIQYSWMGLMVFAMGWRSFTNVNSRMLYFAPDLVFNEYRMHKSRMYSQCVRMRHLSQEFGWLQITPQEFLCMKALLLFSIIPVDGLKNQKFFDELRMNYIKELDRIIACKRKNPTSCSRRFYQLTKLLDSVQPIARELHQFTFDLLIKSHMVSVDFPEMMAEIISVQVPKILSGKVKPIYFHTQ
The experiment in a line: VCAP AR Degradation Assay (AR ELISA, 24 h). The class given is cell-based. Conditions: for Y (lowest measured AR level normalized to DMSO control): AR degradation efficiency; for DC50: concentration of compound when AR level = 50% of DMSO control. The essentials:
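VCaP cells in DMEM with 8% FBS exposed for 24 h at 37° C to a 10-point, 1:3 series (final top concentration […]; 0.1% DMSO control). Lysate AR measured by sandwich ELISA and normalized to DMSO as percent of control. DC50, EC50 and lowest AR level (Y) from four-parameter logistic fit.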
In general terms: In an ELISA, binding on a coated surface is turned into a signal by an enzyme label.

For orientation: DC50 means the concentration giving 50% degradation. Turning to `CCc1cc(N2C(=S)N(c3cnc(C#N)c(C(F)(F)F)c3)C(=O)C2(C)C)ccc1OCCC1CCN([C@@H](C)C(=O)Nc2cc(C#N)cc(NC3CCC(=O)NC3=O)c2)CC1` (stereo partly drawn) [Cmpd 37, (2S)-N-(3-cyano-5-(2,6-dioxopiperidin-3-ylamino)phenyl)-2-(4-(2-(4-(3-(6-cyano-5-(trifluoromethyl)pyridin-3-yl)-5,5-dimethyl-4-oxo-2-thioxoimidazolidin-1-yl)-2-ethylphenoxy)ethyl)piperidin-1-yl)propanamide], the “Y (lowest measured AR level normalized to DMSO control)” value was “* (0<Y<=25%)”. Under “read-out: DC50”, the DC50 was less than 100 nM.

With `CCc1cc(N2C(=S)N(c3cnc(C#N)c(C(F)(F)F)c3)C(=O)C23CCC3)ccc1OCCC1C[C@H]2CC[C@@H](C1)N2CC(=O)Nc1cc(Cl)cc(NC2CCC(=O)NC2=O)c1` (stereo partly drawn) [Cmpd 69, N-(3-chloro-5-(2,6-dioxopiperidin-3-ylamino)phenyl)-2-((1R,5S)-3-(2-(4-(7-(6-cyano-5-(trifluoromethyl)pyridin-3-yl)-8-oxo-6-thioxo-5,7-diazaspiro[3.4]octan-5-yl)-2-ethylphenoxy)ethyl)-8-azabicyclo[3.2.1]octan-8-yl)acetamide], the “Y (lowest measured AR level normalized to DMSO control)” value is “** (25%<Y<=35%)” and the DC50 fell in the range of 100 to 500 nM.

Take `CC1(C)C(=O)N(c2ccc(C#N)c(C(F)(F)F)c2)C(=S)N1c1ccc(OCC2CCN(CC(=O)Nc3cccc(NC4CCC(=O)NC4=O)c3)CC2)c(F)c1` (stereo not shown) [Cmpd 2, 2-(4-((4-(3-(4-cyano-3-(trifluoromethyl)phenyl)-5,5-dimethyl-4-oxo-2-thioxoimidazolidin-1-yl)-2-fluorophenoxy)methyl)piperidin-1-yl)-N-(3-(2,6-dioxopiperidin-3-ylamino)phenyl)acetamide]: the “Y (lowest measured AR level normalized to DMSO control)” value is on record as “** (25%<Y<=35%)”. Also, the DC50 (read-out: DC50) is 100 to 500 nM.

For the compound `CC1(C)C(=O)N(c2cnc(C#N)c(C(F)(F)F)c2)C(=S)N1c1ccc(OCC2CCN(CC(=O)Nc3cccc(NC4CCC(=O)NC4=O)c3)CC2)c(Cl)c1` (stereo not shown) [Cmpd 7, 2-(4-((2-chloro-4-(3-(6-cyano-5-(trifluoromethyl)pyridin-3-yl)-5,5-dimethyl-4-oxo-2-thioxoimidazolidin-1-yl)phenoxy)methyl)piperidin-1-yl)-N-(3-(2,6-dioxopiperidin-3-ylamino)phenyl)acetamide], the “Y (lowest measured AR level normalized to DMSO control)” value is “** (25%<Y<=35%)”. Also, the DC50 (read-out: DC50) lay in the range of 500 to 1000 nM.

As for `CCc1cc(N2C(=S)N(c3ccc(C#N)c(C(F)(F)F)c3)C(=O)C2(C)C)ccc1OC1CCN(CC(=O)Nc2cccc(NC3CCC(=O)NC3=O)c2)CC1` (stereo not shown) [Cmpd 50, 2-(4-(4-(3-(4-cyano-3-(trifluoromethyl)phenyl)-5,5-dimethyl-4-oxo-2-thioxoimidazolidin-1-yl)-2-ethylphenoxy)piperidin-1-yl)-N-(3-(2,6-dioxopiperidin-3-ylamino)phenyl)acetamide], the “Y (lowest measured AR level normalized to DMSO control)” value is given as “** (25%<Y<=35%)”. Further, the DC50 (read-out: DC50) is 100 to 500 nM.

As to `CCc1cc(N2C(=S)N(c3cnc(C#N)c(C(F)(F)F)c3)C(=O)C2(C)C)ccc1OCC[C@H]1CCN(CC(=O)Nc2cc(NC3CCC(=O)NC3=O)ccc2F)[C@H](C)C1` (stereo partly drawn) [Cmpd 77, 2-((2R,4S)-4-(2-(4-(3-(6-cyano-5-(trifluoromethyl)pyridin-3-yl)-5,5-dimethyl-4-oxo-2-thioxoimidazolidin-1-yl)-2-ethylphenoxy)ethyl)-2-methylpiperidin-1-yl)-N-(5-(2,6-dioxopiperidin-3-ylamino)-2-fluorophenyl)acetamide], the “Y (lowest measured AR level normalized to DMSO control)” value was “* (0<Y<=25%)”. Also, for the setting “read-out: DC50”, the DC50 fell in the range of 100 to 500 nM.

Take `CCc1cc(N2C(=S)N(c3cnc(C#N)c(C(F)(F)F)c3)C(=O)C2(C)C)ccc1OCCC1(C)CCN(CC(=O)Nc2cc(Cl)cc(NC3CCC(=O)NC3=O)c2)CC1` (stereo not shown) [Cmpd 64, N-(3-chloro-5-(2,6-dioxopiperidin-3-ylamino)phenyl)-2-(4-(2-(4-(3-(6-cyano-5-(trifluoromethyl)pyridin-3-yl)-5,5-dimethyl-4-oxo-2-thioxoimidazolidin-1-yl)-2-ethylphenoxy)ethyl)-4-methylpiperidin-1-yl)acetamide]: the “Y (lowest measured AR level normalized to DMSO control)” value is recorded as “* (0<Y<=25%)”. For the same compound, where the note is “read-out: DC50”, the DC50 fell in the range of 100 to 500 nM.

On to `CCc1cc(N2C(=S)N(c3cnc(C#N)c(C(F)(F)F)c3)C(=O)C23CCC3)ccc1OCCC1CCN(CC(=O)Nc2cc(Cl)cc(NC3CCC(=O)NC3=O)c2)CC1` (stereo not shown) [Cmpd 27, N-(3-chloro-5-(2,6-dioxopiperidin-3-ylamino)phenyl)-2-(4-(2-(4-(7-(6-cyano-5-(trifluoromethyl)pyridin-3-yl)-8-oxo-6-thioxo-5,7-diazaspiro[3.4]octan-5-yl)-2-ethylphenoxy)ethyl)piperidin-1-yl)acetamide], for which the “Y (lowest measured AR level normalized to DMSO control)” value is on record as “* (0<Y<=25%)”. The 50% degradation concentration (DC50) (read-out: DC50) is less than 100 nM.

As to `CCc1cc(N2C(=S)N(c3cnc(C#N)c(C(F)(F)F)c3)C(=O)C2(C)C)ccc1OCCC1CCN([C@@H](C)C(=O)Nc2cccc(N[C@@H]3CCC(=O)NC3=O)c2)CC1` [Cmpd 44, (S)-2-(4-(2-(4-(3-(6-cyano-5-(trifluoromethyl)pyridin-3-yl)-5,5-dimethyl-4-oxo-2-thioxoimidazolidin-1-yl)-2-ethylphenoxy)ethyl)piperidin-1-yl)-N-(3-((R)-2,6-dioxopiperidin-3-ylamino)phenyl)propanamide], the “Y (lowest measured AR level normalized to DMSO control)” value is reported as “* (0<Y<=25%)”. The half-maximal degradation concentration (DC50) (read-out: DC50) was less than 100 nM.

For the compound `CCc1cc(N2C(=S)N(c3ccc(C#N)c(C(F)(F)F)c3)C(=O)C2(C)C)ccc1OCCC1CCN(CC(=O)Nc2cc(NC3CCC(=O)NC3=O)ccc2F)CC1` (stereo not shown) [Cmpd 18, 2-(4-(2-(4-(3-(4-cyano-3-(trifluoromethyl)phenyl)-5,5-dimethyl-4-oxo-2-thioxoimidazolidin-1-yl)-2-ethylphenoxy)ethyl)piperidin-1-yl)-N-(5-(2,6-dioxopiperidin-3-ylamino)-2-fluorophenyl)acetamide], the “Y (lowest measured AR level normalized to DMSO control)” value is “* (0<Y<=25%)”. The half-maximal degradation concentration (DC50) (read-out: DC50) was 100 to 500 nM.

As to `CC1(C)C(=O)N(c2ccc(C#N)c(C(F)(F)F)c2)C(=S)N1c1ccc(OCCC2CCN(CC(=O)Nc3cccc(NC4CCC(=O)NC4=O)c3)CC2)c(F)c1` (stereo not shown) [Cmpd 3, 2-(4-(2-(4-(3-(4-cyano-3-(trifluoromethyl)phenyl)-5,5-dimethyl-4-oxo-2-thioxoimidazolidin-1-yl)-2-fluorophenoxy)ethyl)piperidin-1-yl)-N-(3-(2,6-dioxopiperidin-3-ylamino)phenyl)acetamide], the “Y (lowest measured AR level normalized to DMSO control)” value was “** (25%<Y<=35%)”. In addition, the DC50 (read-out: DC50) is 100 to 500 nM.

In the case of `CCc1cc(N2C(=S)N(c3ccc(C#N)c(C(F)(F)F)c3)C(=O)C2(C)C)ccc1OC1CCN(CC(=O)Nc2cc(Cl)cc(NC3CCC(=O)NC3=O)c2)CC1` (stereo not shown) [Cmpd 49, N-(3-chloro-5-(2,6-dioxopiperidin-3-ylamino)phenyl)-2-(4-(4-(3-(4-cyano-3-(trifluoromethyl)phenyl)-5,5-dimethyl-4-oxo-2-thioxoimidazolidin-1-yl)-2-ethylphenoxy)piperidin-1-yl)acetamide], the “Y (lowest measured AR level normalized to DMSO control)” value is recorded as “** (25%<Y<=35%)”. Also, under “read-out: DC50”, the DC50 was in the range of 100 to 500 nM.

In the case of `CCc1cc(N2C(=S)N(c3cnc(C#N)c(C(F)(F)F)c3)C(=O)C23CCC3)ccc1OCCC1CCN([C@H](C)C(=O)Nc2cc(Cl)cc(NC3CCC(=O)NC3=O)c2)CC1` (stereo partly drawn) [Cmpd 36, (2R)-N-(3-chloro-5-(2,6-dioxopiperidin-3-ylamino)phenyl)-2-(4-(2-(4-(7-(6-cyano-5-(trifluoromethyl)pyridin-3-yl)-8-oxo-6-thioxo-5,7-diazaspiro[3.4]octan-5-yl)-2-ethylphenoxy)ethyl)piperidin-1-yl)propanamide], the “Y (lowest measured AR level normalized to DMSO control)” value was “* (0<Y<=25%)”. Besides, the 50% degradation concentration (DC50) (read-out: DC50) fell in the range of 100 to 500 nM.

As for `CCc1cc(N2C(=S)N(c3ccc(C#N)c(C(F)(F)F)c3)C(=O)C2(C)C)ccc1OCCC1CCN(CC(=O)Nc2cccc(NC3CCC(=O)NC3=O)c2)CC1` (stereo not shown) [Cmpd 17, 2-(4-(2-(4-(3-(4-cyano-3-(trifluoromethyl)phenyl)-5,5-dimethyl-4-oxo-2-thioxoimidazolidin-1-yl)-2-ethylphenoxy)ethyl)piperidin-1-yl)-N-(3-(2,6-dioxopiperidin-3-ylamino)phenyl)acetamide], the “Y (lowest measured AR level normalized to DMSO control)” value is on record as “* (0<Y<=25%)”. For the same compound, under “read-out: DC50”, the half-maximal degradation concentration (DC50) is less than 100 nM.

These data come from patent publication US11325889B2, “Substituted 3-((3-aminophenyl)amino)piperidine-2,6-dione compounds, compositions thereof, and methods of treatment therewith” (Celgene Corporation, priority 2018, dated 2022).
